Experimental data from ChEMBL document CHEMBL4706574, “Preparation, characterization, antioxidant evaluation of new curcumin derivatives and effects of forming HSA-bound nanoparticles on the stability and activity” (Eur J Med Chem, 2020).
Activity calls are given as the source filed them. The rule behind the calls is not given here.

System: HepG2
Experiment: Antiproliferative activity against human HepG2 cells assessed as cell viability at 10 uM incubated for 48 hrs by MTT assay (reference value: 100 %)
Type: functional
Conditions: read-out: Activity
`COc1cc(/C=C/C(=O)CC(=O)/C=C/c2ccc(O)c(OC)c2)ccc1O` [CURCUMIN] showed a viability at 10 µM of 58.8%. Work on `COc1cc(/C=C/C(=O)/C=C(O)/C=C/c2cc(CC=C(C)C)c(O)c(OC)c2)cc(CC=C(C)C)c1O` yielded a viability at 10 µM of 64.3%.

System: HCT-116
Experiment: Antiproliferative activity against human HCT-116 cells assessed as cell viability at 10 uM incubated for 48 hrs by MTT assay (reference value: 100 %)
Type: functional
Conditions: read-out: Activity
`COc1cc(/C=C/C(=O)CC(=O)/C=C/c2ccc(O)c(OC)c2)ccc1O` [CURCUMIN] showed a viability at 10 µM of 10.3%. Compound `COc1cc(/C=C/C(=O)/C=C(O)/C=C/c2cc(CC=C(C)C)c(O)c(OC)c2)cc(CC=C(C)C)c1O` has a viability at 10 µM of 61.1%.

System: K562
Experiment: Antiproliferative activity against human K562 cells assessed as cell viability at 10 uM incubated for 48 hrs by MTT assay (reference value: 100 %)
Type: functional
Conditions: read-out: Activity
For `COc1cc(/C=C/C(=O)CC(=O)/C=C/c2ccc(O)c(OC)c2)ccc1O` [CURCUMIN], the viability at 10 µM was 65.4%. In the case of `COc1cc(/C=C/C(=O)/C=C(O)/C=C/c2cc(CC=C(C)C)c(O)c(OC)c2)cc(CC=C(C)C)c1O`, the viability at 10 µM is reported as 64.3%.

System: PC-12
Experiment: Cytoprotective activity against H2O2-induced cell death in […] assessed as cell viability at 100 uM incubated for 0.5 hrs followed by H2O2 stimulation and measured after 2 hrs by MTT assay
Type: functional, cell-based
Conditions: Rattus norvegicus, time 2.5 hrs
In the case of `COc1cc(/C=C/C(O)=C/C(=O)/C=C/c2cc(CC=C(C)C)c(O)c(OC)c2)ccc1O`, the Activity is reported as “inactive”. In the case of `COc1cc(/C=C/c2cc(/C=C/c3cc(CC=C(C)C)c(O)c(OC)c3)[nH]n2)cc(CC=C(C)C)c1O`, the Activity is reported as “inactive”. In the case of `C=CCc1cc(/C=C/C(=O)/C=C(O)/C=C/c2ccc(O)c(OC)c2)cc(OC)c1O`, the Activity is reported as “inactive”. With `COc1cc(/C=C/C(=O)/C=C(O)/C=C/c2cc(CC=C(C)C)c(O)c(OC)c2)cc(CC=C(C)C)c1O` the Activity was “Active”.

System: not listed separately
Experiment: Stability of compound in PBS buffer at pH 7.4 incubated for 48 hrs by UV-vis spectrophotometry
Type: physicochemical
Conditions: pH 7.4, 48 h
In the case of `COc1cc(/C=C/C(=O)CC(=O)/C=C/c2ccc(O)c(OC)c2)ccc1O` [CURCUMIN], the Stabilty is reported as “Unstable”. In the case of `COc1cc(/C=C/C(=O)/C=C(O)/C=C/c2cc(CC=C(C)C)c(O)c(OC)c2)cc(CC=C(C)C)c1O`, the Stabilty is reported as “Unstable”.

System: not listed separately
Experiment: Cytoprotective activity against H2O2-induced cell death in […] assessed as cell viability at 30 uM incubated for 0.5 hrs followed by H2O2 stimulation and measured after 2 hrs by MTT assay relative to control
Type: functional
Conditions: Rattus norvegicus, time 2.5 hrs, read-out: Activity
In the case of `C=CCc1cc(/C=C/C(O)=C/C(=O)/C=C/c2cc(CC=C(C)C)c(O)c(OC)c2)cc(OC)c1O`, the viability at 30 µM is reported as 100%. Work on `C=CCc1cc(/C=C/C(=O)/C=C(O)/C=C/c2cc(CC=C)c(O)c(OC)c2)cc(OC)c1O` yielded a viability at 30 µM of 100%. For `COc1cc(/C=C/C(O)=C/C(=O)/C=C/c2cc(CC=C(C)C)c(O)c(OC)c2)ccc1O`, the viability at 30 µM was 100%. In the case of `COc1cc(/C=C/c2cc(/C=C/c3cc(CC=C(C)C)c(O)c(OC)c3)[nH]n2)cc(CC=C(C)C)c1O`, the viability at 30 µM is reported as 100%. Work on `C=CCc1cc(/C=C/C(=O)/C=C(O)/C=C/c2ccc(O)c(OC)c2)cc(OC)c1O` yielded a viability at 30 µM of 100%. With `COc1cc(/C=C/C(=O)/C=C(O)/C=C/c2cc(CC=C(C)C)c(O)c(OC)c2)cc(CC=C(C)C)c1O` the viability at 30 µM was 100%.

System: PC-12
Experiment: Cytoprotective activity against H2O2-induced cell death in […] assessed as cell viability at 30 to 100 uM incubated for 0.5 hrs followed by H2O2 stimulation and measured after 2 hrs by MTT assay
Type: functional, cell-based
Conditions: Rattus norvegicus, dose 30-100 µM, time 2.5 hrs
In the case of `C=CCc1cc(/C=C/C(O)=C/C(=O)/C=C/c2cc(CC=C(C)C)c(O)c(OC)c2)cc(OC)c1O`, the Activity is reported as “Active”. In the case of `C=CCc1cc(/C=C/C(=O)/C=C(O)/C=C/c2cc(CC=C)c(O)c(OC)c2)cc(OC)c1O`, the Activity is reported as “Active”. For `C=CCc1cc(/C=C/c2cc(/C=C/c3cc(CC=C)c(O)c(OC)c3)[nH]n2)cc(OC)c1O`, the Activity was “Active”. For `COc1cc(/C=C/C(O)=C/C(=O)/C=C/c2cc(CC=C(C)C)c(O)c(OC)c2)ccc1O`, the Activity was “Active”. In the case of `COc1cc(/C=C/c2cc(/C=C/c3cc(CC=C(C)C)c(O)c(OC)c3)n[nH]2)ccc1O`, the Activity is reported as “Active”. For `C=CCc1cc(/C=C/c2cc(/C=C/c3ccc(O)c(OC)c3)[nH]n2)cc(OC)c1O`, the Activity was “Active”. In the case of `Oc1ccc(/C=C/c2cc(O)cc(O)c2)cc1`, the Activity is reported as “Active”. In the case of `COc1cc(/C=C/c2cc(/C=C/c3cc(CC=C(C)C)c(O)c(OC)c3)[nH]n2)cc(CC=C(C)C)c1O`, the Activity is reported as “Active”. With `COc1cc(/C=C/C(=O)CC(=O)/C=C/c2ccc(O)c(OC)c2)ccc1O` [CURCUMIN] the Activity was “Active”. For `C=CCc1cc(/C=C/c2cc(/C=C/c3cc(CC=C(C)C)c(O)c(OC)c3)n[nH]2)cc(OC)c1O`, the Activity was “Active”. With `C=CCc1cc(/C=C/C(=O)/C=C(O)/C=C/c2ccc(O)c(OC)c2)cc(OC)c1O` the Activity was “Active”. For `COc1cc(/C=C/C(=O)/C=C(O)/C=C/c2cc(CC=C(C)C)c(O)c(OC)c2)cc(CC=C(C)C)c1O`, the Activity was “Active”.

Same assay, conditions: dose 30-100 µM, time 2.5 hrs
With `O=C(O)c1cc(O)c(O)c(O)c1` the Activity was “Active”.

System: PC-12
Experiment: Cytoprotective activity against H2O2-induced cell death in […] assessed as cell viability at 10 uM incubated for 0.5 hrs followed by H2O2 stimulation and measured after 2 hrs by MTT assay
Type: functional, cell-based
Conditions: time 2.5 hrs
With `O=C(O)c1cc(O)c(O)c(O)c1` the Activity was “inactive”. For `Oc1ccc(/C=C/c2cc(O)cc(O)c2)cc1`, the Activity was “inactive”.

System: PC-12
Experiment: Cytoprotective activity against H2O2-induced cell death in […] assessed as cell viability at 0.1 uM incubated for 0.5 hrs followed by H2O2 stimulation and measured after 2 hrs by MTT assay
Type: functional, cell-based
Conditions: time 2.5 hrs
In the case of `C=CCc1cc(/C=C/C(O)=C/C(=O)/C=C/c2cc(CC=C(C)C)c(O)c(OC)c2)cc(OC)c1O`, the Activity is reported as “Active”. In the case of `C=CCc1cc(/C=C/C(=O)/C=C(O)/C=C/c2cc(CC=C)c(O)c(OC)c2)cc(OC)c1O`, the Activity is reported as “Active”. With `COc1cc(/C=C/C(=O)/C=C(O)/C=C/c2cc(CC=C(C)C)c(O)c(OC)c2)cc(CC=C(C)C)c1O` the Activity was “Active”.
